Measurements published in patent publication US8415309B2, “Bicyclic nucleosides and nucleotides as therapeutic agents” (priority 2009, dated 2013).
Like-named read-outs stand apart in the source and are kept apart here.

Tests used:
[1] = Cytotoxicity (CellTiter-Blue / MTT) run with the replicon assay; type: cell-based; conditions: human, MP-1 cells
Method: The assay outline includes the following steps on Day 1: (1) Plate cells at a density of 10,000 cells/well of a 96 well plate and incubate 37° C.; (2) Make compound dilutions; (3) Add compound dilutions to cells; (4) Incubate for 72 h. The assay includes the following steps on Day 4: (1) Perform Cell titer blue assay for cytotoxicity (the assay is based on the reduction of resazurin (cell titer blue) into a fluorescent product, resorufin, in metabolically active cells, and the assay can be duplexed with the assay used for HCV replicon luciferase reporter assay); (2) Perform luciferase assay with the Bright-Glo luciferase substrate (Promega) and read luminescence; (3) Process results.
Under the Alamar blue assay protocol, the assay plates are removed from a 37° C. incubator, and 20 μl of CellTiter-Blue™ Reagent is added. The cells are incubated in the 37° C. incubator for 3 h. The assay plates are shaken for 10 sec and fluorescence at 560Ex/590Em nm is recorded. The results are expressed relative to the 100% untreated control using the following equation: […]=100−[(RFUcompound−RFUblank/RFUuntreated−RFUblank)×100]. Alternatively, under the MTT protocol the extent of cytotoxicity is determined via metabolism of the vital dye 3-(4,5-dimethylthiaxol-2-yl)-2,5-diphenyltetrazolium bromide (MTT). MTT (1 mg/ml) was added to each well and plates incubated for 3 hours incubation at 37° C. Wells were aspirated, iso-propanol […] was added and absorbance values read at 540/690 nm. Compound concentrations that developed 50% cytotoxicity (CC50) were calculated using non-linear regression analysis.

[2] = tested on: HCV RNA replication (HCV subgenomic replicon in MP-1 cells); test: Cell-Based HCV RNA Replication Luciferase Reporter Assay; conditions: Hepatitis C virus; for inhibition at 50 µM: read-out: Inhibition at 50 μM (%); for EC50: 72 h
Pharmacokinetics in rats = type: in vivo, male Sprague-Dawley rats; conditions: Rat
Method: (§1) The pharmacokinetic properties of Compound 9 were determined in male Sprague-Dawley rats, beagle dogs and cynomolgus monkeys (n=3 in each species) with an oral dose of 5 mg/kg and iv dose of 2 mg/kg. PK parameters were analyzed using the WinNonlin noncompartmental model.

Pharmacokinetics in dogs = type: in vivo, beagle dogs; conditions: Dog
Method: as §1

Cross-species PK summary = type: in vivo, rats, monkeys and dogs; conditions: Sprague-Dawley (rat), beagle (dog), cynomolgus (monkey), plasma
Method: as §1

[3] = Pharmacokinetics in monkeys; type: in vivo, cynomolgus monkeys
Method: as §1

[4] = MP-1 cells, luciferase readout, read-out: EC50
[5] = oral 5 mg/kgBW, read-out: Cmax (maximum concentration observed following the oral dose)

Row | SMILES | CC50 at 72 h [1] [µM] | inhibition at 50 µM ([2]; 50 μM compound) [%] | EC50 [2, 4] [µM] | also measured
1 | C[C@@]1(O)[C@H](O)[C@@H](CO)O[C@H]1c1cc(C#N)c2c(N)ncnn12 [Compound 14, 4-amino-7-(2-C-methyl-β-D-ribofuranosyl)-pyrrolo[2,1-f][1,2,4]triazine-5-carbonitrile] | 18.8 | 100 | 1.4 | 
2 | C[C@@]1(O)[C@H](O)[C@@H](CO)O[C@H]1c1cc(Cl)c2c(N)ncnn12 [Compound 12, 4-amino-5-chloro-7-(2-C-methyl-β-D-ribofuranosyl)-pyrrolo[2,1-f][1,2,4]triazine] | 6.5 | 99 | 0.22 | 
3 | C[C@@]1(O)[C@H](O)[C@@H](CO)O[C@H]1c1cc(F)c2c(N)ncnn12 [Compound 11, 4-amino-5-fluoro-7-(2-C-methyl-β-D-ribofuranosyl)-pyrrolo[2,1-f][1,2,4]triazine] | > 100 | 97 | 3.1 | 
4 | CC(C)(C)C(=O)OCOP(=O)(OCOC(=O)C(C)(C)C)OC[C@H]1O[C@@H](c2ccc3c(N)ncnn23)[C@](C)(O)[C@@H]1O [Compound 34, Bis-POM (pivaloyloxymethyl) prodrug of 4-amino-7-(2-C-methyl-β-D-ribofuranosyl)-pyrrolo[2,1-f][1,2,4]triazine] | 45 |  |  | EC50 [2]: 3.8 µM; inhibition at 50 µM [2]: 100%
5 | C[C@@]1(O)[C@H](O)[C@@H](CO)O[C@H]1c1cc(C#C[Si](C)(C)C)c2c(N)ncnn12 [Compound 16, 4-amino-5-trimethylsilanylethynyl-7-(2-C-methyl-β-D-ribofuranosyl)-pyrrolo[2,1-f][1,2,4]triazine] |  | 99 |  | 
6 | C#Cc1cc([C@@H]2O[C@H](CO)[C@@H](O)[C@@]2(C)O)n2ncnc(N)c12 [Compound 17, 4-Amino-5-ethynyl-7-(2-C-methyl-β-D-ribofuranosyl)-pyrrolo[2,1-f][1,2,4]triazine] |  | 98 |  | 
7 | C[C@@]1(O)[C@H](O)[C@@H](CO)O[C@H]1c1cc(C(N)=O)c2c(N)ncnn12 [Compound 15, 4-amino-7-(2-C-methyl-β-D-ribofuranosyl)-pyrrolo[2,1-f][1,2,4]triazine-5-carboxylic acid amide] | 0.37 | 100 | 0.0062 | 
8 | C[C@@]1(O)[C@H](O)[C@@H](CO)O[C@H]1c1ccc2c(N)nc(N)nn12 [Compound 20, 2,4-diamino-7-(2-C-methyl-β-D-ribofuranosyl)-pyrrolo[2,1-f][1,2,4]triazine] |  | 19 |  | 
9 | C[C@@]1(O)[C@H](O)[C@@H](CO)O[C@H]1c1cc(I)c2c(N)ncnn12 [Compound 13, 4-amino-5-iodo-(2-C-methyl-β-D-ribofuranosyl)-pyrrolo[2,1-f][1,2,4]triazine] |  | 97 |  | 
10 | C[C@@]1(O)[C@H](O)[C@@H](CO)O[C@H]1c1cc(-c2ncc[nH]2)c2c(N)ncnn12 [Compound 38, 4-amino-5-imidazole-7-(2-C-methyl-β-D-ribofuranosyl)-pyrrolo[2,1-f][1,2,4]triazine] |  | 99 |  | 
11 | C[C@@]1(O)[C@H](O)[C@@H](CO)O[C@H]1c1cc(C2=NCCN2)c2c(N)ncnn12 [Compound 35, 4-amino-5-imidazoline-7-(2-C-methyl-β-D-ribofuranosyl)-pyrrolo[2,1-f][1,2,4]triazine] |  | 99 |  | 
12 | C[C@@]1(O)[C@H](O)[C@@H](CO)O[C@H]1c1cc(-c2ncco2)c2c(N)ncnn12 [Compound 22, 4-amino-5-oxazol-2-yl-7-(2-C-methyl-β-D-ribofuranosyl)-pyrrolo[2,1-f][1,2,4]triazine] |  | 95 |  | 
13 | C[C@@]1(O)[C@H](O)[C@@H](CO)O[C@H]1c1ccc2c(N)ncnn12 [Compound 9, 4-amino-7-(2-C-methyl-β-D-ribofuranosyl)-pyrrolo[2,1-f][1,2,4]triazine] | 365 | 99 | 1.3 | Cmax (Pharmacokinetics in rats; [5]): 2380 nM; CL (total clearance) (Pharmacokinetics in rats; single iv 2 mg/kgBW): 18.8 mL/min/kgBW; Vss (steady state volume distribution) (Pharmacokinetics in rats; single iv 2 mg/kgBW): 4.19 L/kgBW; bioavailability (Pharmacokinetics in rats; male, Sprague-Dawley, plasma, 5 mg/kg, oral 5 mg/kgBW vs iv 2 mg/kgBW, read-out: F % (oral bioavailability)): 83%; AUC (Pharmacokinetics in rats; male, Sprague-Dawley, plasma, 5 mg/kg, single iv (2 mg/kgBW) or oral dose (5 mg/kgBW), read-out: AUC (area under the curve of plasma exposure)): 13 µM·h; half-life (Pharmacokinetics in rats; male, Sprague-Dawley, plasma, single iv (2 mg/kgBW) or oral dose (5 mg/kgBW), read-out: t1/2 (terminal elimination half-life) (converted)): 4 h; Cmax (Pharmacokinetics in dogs; [5]): 8360 nM; CL (total clearance) (Pharmacokinetics in dogs; single iv 2 mg/kgBW): 11.4 mL/min/kgBW; Vss (steady state volume distribution) (Pharmacokinetics in dogs; single iv 2 mg/kgBW): 5.22 L/kgBW; bioavailability (Pharmacokinetics in dogs; beagle, plasma, 5 mg/kg, oral 5 mg/kgBW vs iv 2 mg/kgBW, read-out: F % (oral bioavailability)): 96%; AUC (Pharmacokinetics in dogs; beagle, plasma, 5 mg/kg, single iv (2 mg/kgBW) or oral dose (5 mg/kgBW), read-out: AUC (area under the curve of plasma exposure)): 24.9 µM·h; half-life (Pharmacokinetics in dogs; beagle, plasma, single iv (2 mg/kgBW) or oral dose (5 mg/kgBW), read-out: t1/2 (terminal elimination half-life) (converted)): 7.6 h; bioavailability (Cross-species PK summary; po, 5 mg/kg, range over rat, monkey, dog, read-out: oral bioavailability across species): 33 to 96%; half-life (Cross-species PK summary; range over preclinical animal species (rat, monkey, dog), read-out: plasma / elimination half-life across species): 4 to 7.6 h; CL (total clearance) ([3]; Monkey, single iv 2 mg/kgBW): 20.5 mL/min/kgBW; Vss (steady state volume distribution) ([3]; Monkey, single iv 2 mg/kgBW): 2.43 L/kgBW; bioavailability ([3]; cynomolgus monkey, plasma, 5 mg/kg, oral 5 mg/kgBW vs iv 2 mg/kgBW, read-out: F % (oral bioavailability)): 33%; Cmax ([3]; cynomolgus monkey, plasma, 5 mg/kg, oral 5 mg/kgBW, read-out: Cmax (maximum concentration observed following the oral dose)): 820 nM; AUC ([3]; cynomolgus monkey, plasma, 5 mg/kg, single iv (2 mg/kgBW) or oral dose (5 mg/kgBW), read-out: AUC (area under the curve of plasma exposure)): 5 µM·h; half-life ([3]; cynomolgus monkey, plasma, single iv (2 mg/kgBW) or oral dose (5 mg/kgBW), read-out: t1/2 (terminal elimination half-life) (converted)): 4.3 h
14 | C[C@@]1(O)[C@H](O)[C@@H](CO)O[C@H]1c1c(F)cc2c(N)ncnn12 [Compound 32, 4-Amino-6-fluoro-7-(2-C-methyl-β-D-ribofuranosyl)-pyrrolo[2,1-f][1,2,4]triazin-7-yl] |  | 23 |  | 
